According to patent US8058442B2 (Technion Research and Development Foundation Ltd., priority 2002, dated 2011):
Like-named read-outs stand apart in the source and are kept apart here.

How the values were obtained:
[1] = Iron chelation in solution: fluorescence dequenching of iron-quenched calcein; conditions: Fe-CAL in HBS pH 7.4, room temperature, 1 h incubation, read-out: half maximal dequenching level
Procedure: Iron binding was determined by the chelator capacity for restoring the fluorescence of iron-quenched calcein (CAL), a dynamic fluorescent metallosensor. The iron-scavenging properties of the chelators were assessed in solution, by mixing iron salts with free CAL.
Iron precomplexed calcein (Fe-CAL) solutions of 1 μm (in Hepes 20 mM buffered saline, pH 7.4=HBS) were incubated in the presence of the indicated concentrations of different chelators at room temperature and the fluorescence intensity (475 nm->520 nm) followed with time in a Tecan fluorescence plate reader, using 96-well culture plates (Nunc) at 100 μl final volume. The time-dependent complexation of iron from Fe-CAL by the chelators was followed by fluorescence dequenching. The fluorescence intensity attained after 1 h incubation is shown as a function of the chelator concentration.
The corresponding half maximal dequenching level for the corresponding chelator was (in μM) (rank order from the fastest acting to the slowest): […]

rat brain MAO-A = target: T1, rat brain MAO-A (Rattus norvegicus, UniProt P21396); test: In vitro inhibition of rat brain MAO-A; type: biochemical; conditions: read-out: inhibition of MAO-A
T1 construct: from tissue; host or cells: rat brain homogenate, 4500 g pellet
T1 sequence (P21396 1-526): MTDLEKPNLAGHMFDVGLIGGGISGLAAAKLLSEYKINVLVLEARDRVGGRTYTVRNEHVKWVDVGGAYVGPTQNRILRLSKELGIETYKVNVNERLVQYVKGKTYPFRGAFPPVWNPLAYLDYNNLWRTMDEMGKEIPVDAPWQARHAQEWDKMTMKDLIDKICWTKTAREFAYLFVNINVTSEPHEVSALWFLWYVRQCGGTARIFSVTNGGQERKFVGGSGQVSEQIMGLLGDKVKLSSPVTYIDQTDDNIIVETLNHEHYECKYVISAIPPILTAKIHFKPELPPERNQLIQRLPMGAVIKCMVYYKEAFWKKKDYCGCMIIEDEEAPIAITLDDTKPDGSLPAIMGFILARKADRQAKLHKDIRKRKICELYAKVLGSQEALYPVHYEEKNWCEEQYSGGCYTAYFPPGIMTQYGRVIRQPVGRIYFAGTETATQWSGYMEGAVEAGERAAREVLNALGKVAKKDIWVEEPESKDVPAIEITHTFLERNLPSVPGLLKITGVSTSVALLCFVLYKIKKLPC
Procedure: (§1) Rats were decapitated and the brains were quickly taken into a weighted ice-cold sucrose buffer (0.32 M), and their weights were determined. All subsequent procedures were performed at 0-4° C. The brains were homogenized in 0.25 M sucrose (one part tissue to 20 parts sucrose) in a Teflon glass homogenizer followed by the addition of sucrose buffer to a final concentration of 10% homogenate. The homogenates were centrifuged at 600 g for 15 min. The supernatant fraction was taken out and centrifuged at 4500 g for 30 min, the pellet was diluted in 0.32 M sucrose buffer and kept frozen for later assaying of MAO. Protein concentration was determined with Bradford reagent at 595 nm, using bovine serum albumin as a standard.
(§2) The test compound was added to a suitable dilution of the enzyme preparation (70 μg protein for MAO-B and 150 μg MAO-A assay) in 0.05 M phosphate buffer (pH 7.4). The mixture was incubated together with […], a specific inhibitor of MAO-B (for determination of MAO-A) or […] clorgylin, a specific inhibitor of MAO-A (for determination of MAO-B). Incubation was carried for 1 h at 37° C. before addition of ^14C-5-hydroxytryptamine binoxalate ([…]) for determination of MAO-A, or ^14C-phenylethylamine 100 µM for determination of MAO-B, and incubation continued for 30 min or 20 min, respectively. The reaction was stopped with 2 M ice-cold citric acid, and the metabolites were extracted and determined by liquid-scintillation counting in cpm units.
(§3) MAO-A and MAO-B activities were determined in rat brain homogenate in vitro following incubation with varying concentrations of the test compounds.
In another experiment, the in vitro inhibitory activity of HLA20, M32, VK-28, M30, M31, and propargylamine (P) was tested against rat brain MAO-A. The test compounds were added to buffer containing 10^−7M deprenyl and were incubated with the tissue homogenate for 60 min at 37° C. before addition of ^14C-5-hydroxytryptamine. MAO-A activity in presence of the test compound was expressed as a percentage of that in control samples.

[2] = test system: human erythroleukemia K562 cells; test: Iron permeation of the chelators into calcein-loaded K562 cells; type: cell-based; conditions: 5 μM chelator, 37° C.
Procedure: The iron-scavenging properties of the chelators were assessed in human erythroleukemia K562 cells, by loading with the permeant CAL-AM probe, in situ formation of free CAL, and binding of cytosolic labile iron. Calcein-AM readily passes through the cell membrane of viable cells because of the enhanced hydrophobicity as compared to Calcein. When Calcein-AM permeates into the cytoplasm, it is hydrolyzed by esterases in cells to the parent Calcein, a pH-independent, cytosolic fluorescent marker, which remains inside of the cell. The time-dependent recovery of fluorescence in the presence of a given chelator provided a continuous measure for the capacity of the chelator to access the iron/CAL-containing compartment.
Calcein uptake and intracellular fluorescence were determined as follows: K562 erythroleukemia cells were preloaded with calcein (CAL) by incubation with […] of the fluorescent probe CAL-AM for 5 min at 37° C., washed and incubated in HBS medium containing anti-CAL antibodies in order to quench traces of extracellular-associated fluorescence. The suspensions were placed in 96-well plates (100 μl final volume) and analyzed as described above while maintaining the system at 37° C. At the indicated time, the indicated chelator was added so as to reach a final 5 μM concentration.
The values of half maximal time (sec) and fraction of fluorescence recovery were: […]

rat brain MAO-B = target: T2, rat brain MAO-B (Rattus norvegicus, UniProt P19643); test: In vitro inhibition of rat brain MAO-B; type: biochemical; conditions: read-out: inhibition of MAO-B
T2 construct: from tissue; host or cells: rat brain homogenate, 4500 g pellet
T2 sequence (P19643 1-520): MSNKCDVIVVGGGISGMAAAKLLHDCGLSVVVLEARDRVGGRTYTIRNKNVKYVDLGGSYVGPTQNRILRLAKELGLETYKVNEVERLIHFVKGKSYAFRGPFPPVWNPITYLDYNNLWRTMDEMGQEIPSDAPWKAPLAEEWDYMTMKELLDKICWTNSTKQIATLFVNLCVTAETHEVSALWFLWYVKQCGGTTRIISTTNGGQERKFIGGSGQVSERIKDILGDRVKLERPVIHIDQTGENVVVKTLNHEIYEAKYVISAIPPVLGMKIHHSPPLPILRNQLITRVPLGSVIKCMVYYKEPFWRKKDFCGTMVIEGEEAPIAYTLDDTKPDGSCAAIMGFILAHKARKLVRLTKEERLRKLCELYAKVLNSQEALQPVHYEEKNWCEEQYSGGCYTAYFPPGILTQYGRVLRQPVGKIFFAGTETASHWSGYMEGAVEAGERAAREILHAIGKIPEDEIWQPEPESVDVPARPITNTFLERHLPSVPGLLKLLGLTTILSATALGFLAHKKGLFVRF
Procedure: as §1, §2, §3
MAO-B activity in presence of the test compound was expressed as a percentage of that in control samples.

Compound | EC50 ([1]; FIG. 1B) | EC50 ([1]; FIG. 1C) | inhibition at 100 µM (rat brain MAO-A; 100 μM) | half maximal time ([2]; FIG. 2B) | half maximal time ([2]; FIG. 2C) | inhibition at 100 µM (rat brain MAO-B; 100 μM) | EC50 ([1]; FIG. 1A) | inhibition at 100 µM (rat brain MAO-A) | half maximal time ([2]; FIG. 2A) | inhibition at 100 µM (rat brain MAO-B)
OCCN1CCN(Cc2ccc(O)c3ncccc23)CC1 [VK-28, 5-[4-(2-hydroxyethyl)piperazin-1-ylmethyl]-8-hydroxyquinoline, reference compound] | 5.2 µM | 3.2 µM | 15.1% | 1250 s | 1500 s | 13.3% |  |  |  | 
C#CCN1CCN(Cc2ccc(O)c3ncccc23)CC1 [HLA20, 5-(4-propargylpiperazin-1-ylmethyl)-8-hydroxyquinoline] | 5.4 µM |  |  | 390 s |  |  | 3.5 µM | 26.1% | 175 s | 42%
